According to the supplement of paper PMC10307832:

compound: N#CC1(c2ccc(NC(=O)c3cccnc3NCc3ccncc3)cc2)CCCC1 [Apatinib] + Nc1ncn([C@H]2C[C@H](O)[C@@H](CO)O2)c(=O)n1 [Decitabine] (partner 2 µM); experiment: relative viability (nuclei count vs DMSO), 5 days (fraction); higher = more cells survive; conditions: first compound 0.08 µM
Procedure, shortened: (§1)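 For relative viability, nuclei counts in treated wells were divided by those in vehicle wells. Lung cancer cell lines had been pin-tool dosed in 1536-well plates the day after seeding and cultured for 5 days, then fixed and stained in one step (final 0.05% Triton X-100, 1% formaldehyde, 1 ug/ml Hoechst) and imaged at 4×. Doses were one drug alone or a fixed anchor-drug dose plus five library-drug doses (not always all listed) in √10 steps, and values are duplicate-plate medians.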

Cell Line	relative viability
LCLC-97TM1	0.268
LCLC-103H	0.792
LK-2	0.299
LOU-NH91	0.85
LU99A	1.01
LXF-289	0.4
NCI-H23	0.32
NCI-H322M	0.75
NCI-H358	0.225
NCI-H441	0.229
NCI-H596	1
NCI-H647	0.376
NCI-H650	0.35
NCI-H727	0.89
NCI-H838	0.489
NCI-H1355	0.35
NCI-H1395	0.747

Cell Line	relative viability
NCI-H1437	0.583
NCI-H1651	0.609
NCI-H1666	0.756
NCI-H1734	0.532
NCI-H1755	0.712
NCI-H1792	0.596
NCI-H1793	0.555
NCI-H1915	0.296
NCI-H1944	0.41
NCI-H1975	0.406
NCI-H1993	0.604
NCI-H2085	0.592
NCI-H2087	0.272
NCI-H2126	0.589
NCI-H2170	0.476
NCI-H2347	0.666

same assay, conditions: first compound 0.253 µM

Cell Line	relative viability
LCLC-97TM1	0.244
LCLC-103H	0.739
LK-2	0.298
LOU-NH91	0.827
LU99A	1.01
LXF-289	0.386
NCI-H23	0.333
NCI-H322M	0.709
NCI-H358	0.219
NCI-H441	0.233
NCI-H596	1.18
NCI-H647	0.413
NCI-H650	0.331
NCI-H838	0.48
NCI-H1355	0.349
NCI-H1395	0.808

Cell Line	relative viability
NCI-H1437	0.584
NCI-H1651	0.53
NCI-H1666	0.727
NCI-H1734	0.549
NCI-H1755	0.701
NCI-H1792	0.55
NCI-H1793	0.535
NCI-H1915	0.266
NCI-H1944	0.466
NCI-H1975	0.372
NCI-H1993	0.623
NCI-H2085	0.573
NCI-H2087	0.285
NCI-H2126	0.637
NCI-H2170	0.494
NCI-H2347	0.592

same assay, conditions: first compound 0.8 µM

Cell Line	relative viability
LCLC-97TM1	0.237
LCLC-103H	0.687
LK-2	0.273
LOU-NH91	0.732
LU99A	0.843
LXF-289	0.391
NCI-H23	0.304
NCI-H322M	0.64
NCI-H358	0.24
NCI-H441	0.248
NCI-H596	0.916
NCI-H647	0.478
NCI-H650	0.332
NCI-H727	0.973
NCI-H838	0.493
NCI-H1355	0.39
NCI-H1395	0.781

Cell Line	relative viability
NCI-H1437	0.524
NCI-H1651	0.611
NCI-H1666	0.692
NCI-H1734	0.482
NCI-H1755	0.644
NCI-H1792	0.544
NCI-H1793	0.516
NCI-H1915	0.265
NCI-H1944	0.401
NCI-H1975	0.413
NCI-H1993	0.519
NCI-H2085	0.582
NCI-H2087	0.331
NCI-H2126	0.666
NCI-H2170	0.461
NCI-H2347	0.67

same assay, conditions: first compound 2.53 µM

Cell Line	relative viability
LCLC-97TM1	0.185
LCLC-103H	0.726
LK-2	0.21
LOU-NH91	0.741
LU99A	0.895
LXF-289	0.565
NCI-H23	0.332
NCI-H322M	0.833
NCI-H358	0.218
NCI-H441	0.285
NCI-H596	1.04
NCI-H647	0.414
NCI-H650	0.418
NCI-H727	0.985
NCI-H838	0.442
NCI-H1355	0.367
NCI-H1395	0.744

Cell Line	relative viability
NCI-H1437	0.505
NCI-H1651	0.593
NCI-H1666	0.737
NCI-H1734	0.563
NCI-H1755	0.91
NCI-H1792	0.591
NCI-H1793	0.541
NCI-H1915	0.339
NCI-H1944	0.421
NCI-H1975	0.381
NCI-H1993	0.559
NCI-H2085	0.587
NCI-H2087	0.239
NCI-H2126	0.566
NCI-H2170	0.518
NCI-H2347	0.674

same assay, conditions: first compound 8 µM

Cell Line	relative viability
LCLC-97TM1	0.228
LCLC-103H	0.744
LK-2	0.273
LOU-NH91	0.776
LU99A	0.774
LXF-289	0.594
NCI-H23	0.475
NCI-H322M	0.783
NCI-H358	0.316
NCI-H441	0.444
NCI-H596	1.08
NCI-H647	0.583
NCI-H650	0.626
NCI-H727	0.729
NCI-H838	0.469
NCI-H1355	0.447
NCI-H1395	0.859

Cell Line	relative viability
NCI-H1437	0.46
NCI-H1651	0.41
NCI-H1666	0.612
NCI-H1734	0.623
NCI-H1755	0.837
NCI-H1792	0.609
NCI-H1793	0.564
NCI-H1915	0.388
NCI-H1944	0.504
NCI-H1975	0.466
NCI-H1993	0.544
NCI-H2085	0.712
NCI-H2087	0.236
NCI-H2126	0.547
NCI-H2170	0.508
NCI-H2347	0.804

compound: N#CC1(c2ccc(NC(=O)c3cccnc3NCc3ccncc3)cc2)CCCC1 [Apatinib] + NC(=O)Nc1cc(-c2cccc(F)c2)sc1C(=O)N[C@H]1CCCNC1 [AZD7762] (partner 0.2 µM); experiment: as above; conditions: first compound 0.08 µM
Procedure, shortened: as §1

Cell Line	relative viability
LCLC-97TM1	0.233
LCLC-103H	0.801
LK-2	0.262
LOU-NH91	0.749
LU99A	0.413
LXF-289	1.13
NCI-H23	0.275
NCI-H322M	0.553
NCI-H358	0.548
NCI-H441	1
NCI-H596	1.09
NCI-H650	0.906
NCI-H727	0.487
NCI-H838	0.979
NCI-H1355	0.699
NCI-H1395	0.438

Cell Line	relative viability
NCI-H1437	1.07
NCI-H1651	0.325
NCI-H1666	0.828
NCI-H1734	0.597
NCI-H1755	0.442
NCI-H1792	0.881
NCI-H1793	0.669
NCI-H1915	0.733
NCI-H1944	0.498
NCI-H1993	0.869
NCI-H2085	0.97
NCI-H2087	1.25
NCI-H2126	1.02
NCI-H2170	0.871
NCI-H2347	0.716

same assay, conditions: first compound 0.253 µM

Cell Line	relative viability
LCLC-97TM1	0.263
LCLC-103H	0.741
LK-2	0.468
LOU-NH91	0.724
LU99A	0.448
LXF-289	1.1
NCI-H23	0.193
NCI-H322M	0.58
NCI-H358	0.573
NCI-H441	1.16
NCI-H596	1.04
NCI-H647	0.482
NCI-H650	1.05
NCI-H838	0.957
NCI-H1355	0.812
NCI-H1395	0.425

Cell Line	relative viability
NCI-H1437	1.12
NCI-H1651	0.514
NCI-H1666	0.871
NCI-H1734	0.594
NCI-H1755	0.449
NCI-H1792	0.68
NCI-H1793	0.41
NCI-H1915	0.685
NCI-H1944	0.564
NCI-H1975	0.754
NCI-H1993	0.7
NCI-H2085	1
NCI-H2087	1.25
NCI-H2126	0.924
NCI-H2170	0.901
NCI-H2347	0.791

same assay, conditions: first compound 0.8 µM

Cell Line	relative viability
LCLC-97TM1	0.204
LCLC-103H	0.858
LK-2	0.302
LOU-NH91	0.75
LU99A	0.269
LXF-289	1.09
NCI-H23	0.21
NCI-H322M	0.549
NCI-H358	0.475
NCI-H441	1.05
NCI-H596	0.863
NCI-H647	0.372
NCI-H650	1.12
NCI-H727	0.548
NCI-H838	0.941
NCI-H1355	0.593
NCI-H1395	0.407

Cell Line	relative viability
NCI-H1437	1.02
NCI-H1651	0.44
NCI-H1666	0.776
NCI-H1734	0.548
NCI-H1755	0.366
NCI-H1792	0.528
NCI-H1793	0.257
NCI-H1915	0.648
NCI-H1944	0.477
NCI-H1975	0.71
NCI-H1993	0.648
NCI-H2085	0.925
NCI-H2087	1.32
NCI-H2126	0.9
NCI-H2170	0.719
NCI-H2347	0.823

same assay, conditions: first compound 2.53 µM

Cell Line	relative viability
LCLC-97TM1	0.19
LCLC-103H	0.7
LK-2	0.155
LOU-NH91	0.677
LU99A	0.224
LXF-289	1.02
NCI-H23	0.134
NCI-H322M	0.471
NCI-H358	0.45
NCI-H441	1.08
NCI-H596	0.944
NCI-H647	0.341
NCI-H650	0.743
NCI-H727	0.456
NCI-H838	0.885
NCI-H1355	0.447
NCI-H1395	0.361

Cell Line	relative viability
NCI-H1437	1.04
NCI-H1651	0.322
NCI-H1666	0.769
NCI-H1734	0.439
NCI-H1755	0.375
NCI-H1792	0.508
NCI-H1793	0.209
NCI-H1915	0.567
NCI-H1944	0.316
NCI-H1975	0.514
NCI-H1993	0.576
NCI-H2085	0.846
NCI-H2087	1.05
NCI-H2126	0.973
NCI-H2170	0.721
NCI-H2347	0.654

same assay, conditions: first compound 8 µM

Cell Line	relative viability
LCLC-97TM1	0.311
LCLC-103H	0.75
LK-2	0.248
LOU-NH91	0.701
LU99A	0.229
LXF-289	1.02
NCI-H23	0.108
NCI-H322M	0.471
NCI-H358	0.343
NCI-H441	1.06
NCI-H596	0.901
NCI-H647	0.344
NCI-H650	0.694
NCI-H727	0.49
NCI-H838	0.865
NCI-H1355	0.457
NCI-H1395	0.373

Cell Line	relative viability
NCI-H1437	0.812
NCI-H1651	0.324
NCI-H1666	0.746
NCI-H1734	0.389
NCI-H1755	0.335
NCI-H1792	0.211
NCI-H1793	0.116
NCI-H1915	0.505
NCI-H1944	0.285
NCI-H1975	0.655
NCI-H1993	0.638
NCI-H2085	0.699
NCI-H2087	1.05
NCI-H2126	0.933
NCI-H2170	0.706
NCI-H2347	0.556
